Data set [1] deals with Stat5:Stat5 DNA-binding activity. Nature of the data set: EMSA of Stat5:Stat5 DNA-binding activity in nuclear extracts of EGF-stimulated NIH3T3/hEGFR. Type of data set: biochemical, mouse. Conditions: Fig. 1C, MGFe probe, 30 min. The method, then: (§1) These studies were carried out as previously described using the ^32P-labeled oligonucleotide probes, hSIE (high affinity sis-inducible element from the c-fos gene, m67 variant, 5^′-[…]) that binds Stat1 and Stat3 [11, 12] and the mammary gland factor element (MGFe) from the bovine β–casein gene promoter (sense strand, 5^′-[…]) that binds Stat5 and Stat1 [11, 12]. Details are presented in Supplementary Information, “Methods”. […]
(§2) min, prior to incubation with the radiolabeled probe for 30 min at 30 °C and subjecting to EMSA analysis.
(§3) In another case, the nuclear extract was pre-incubated with the radiolabeled probe for 30 min at 30 °C prior to incubation with increasing concentration of H182 at room temperature for 30 min and subjecting to EMSA analysis. Bands corresponding to Stats DNA- binding activities were scanned and quantified using ImageJ and plotted as a percentage of control (vehicle) against the concentration of the inhibitor, from which the IC50 values were derived .

Data set [2] addresses T1, Stat1:Stat1 DNA-binding activity (Mus musculus, UniProt P42225).
T1 construct: endogenous in cells; host or cells: EGF-stimulated NIH3T3/hEGFR fibroblasts (nuclear extract)
T1 sequence (P42225 2-749 limits assumed): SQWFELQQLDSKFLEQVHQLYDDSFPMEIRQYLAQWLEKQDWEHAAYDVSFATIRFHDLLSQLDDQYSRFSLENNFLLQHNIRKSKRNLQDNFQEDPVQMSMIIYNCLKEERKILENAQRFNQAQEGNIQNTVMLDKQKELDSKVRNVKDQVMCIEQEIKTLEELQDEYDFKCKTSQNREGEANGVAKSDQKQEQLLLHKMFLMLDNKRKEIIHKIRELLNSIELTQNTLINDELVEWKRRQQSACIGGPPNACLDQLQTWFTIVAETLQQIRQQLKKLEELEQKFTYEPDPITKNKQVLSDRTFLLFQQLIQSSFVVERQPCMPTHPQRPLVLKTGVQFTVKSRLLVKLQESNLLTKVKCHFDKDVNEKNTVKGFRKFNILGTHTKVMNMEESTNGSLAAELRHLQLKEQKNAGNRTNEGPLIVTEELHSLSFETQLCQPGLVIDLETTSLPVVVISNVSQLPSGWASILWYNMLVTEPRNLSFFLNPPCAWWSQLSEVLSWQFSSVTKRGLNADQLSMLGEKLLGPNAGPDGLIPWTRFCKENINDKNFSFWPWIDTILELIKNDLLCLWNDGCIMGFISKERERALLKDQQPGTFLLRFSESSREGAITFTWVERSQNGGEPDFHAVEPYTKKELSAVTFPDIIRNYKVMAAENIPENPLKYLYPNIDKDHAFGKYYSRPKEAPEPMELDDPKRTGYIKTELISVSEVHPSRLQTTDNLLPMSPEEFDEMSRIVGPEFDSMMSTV
Nature of the data set: EMSA of Stat1:Stat1 DNA-binding activity in nuclear extracts of EGF-stimulated NIH3T3/hEGFR. Type of data set: biochemical. The settings on record: Fig. 1C, 30 min. The method, then:
as §1, §2, §3
Background: A gel shift assay detects complexes by their altered migration in electrophoresis.

For data set [3], the system named is normal human mesothelial cells. Briefly: CyQuant viable cell number assay, normal mesothelial cells. Type of data set: cell-based. Conditions: 72 h, read-out: IC50 viable cell numbers, normal human mesothelial cells. The method, then:
(§4) CyQuant assay was performed to evaluate compounds as previously reported. Details are presented in Supplementary Information, “Methods”. […]
(§5) 1.2.6. Cell viability assays
(§6) CyQuant assay was performed to evaluate compounds as previously reported [1 -3] . Briefly, cells (5 x 10^3 per well, 100 µl) in culture in 96-well plates were treated once with 0 -10 µM concentrations of H120, H105, […]
(§7) concentration of H182 for 6 h and then treated with 0- 100 nM docetaxel or 0-20 µM cisplatin for a total of 72 h. Viable cell numbers were assessed by a CyQuant cell proliferation kit according to the manufacturer’s instructions (Thermo/Life Technologies Corp, Carlsbad, CA). Viable cell numbers were normalized to that of DMSO (control)-treated samples. […]

Data set [4] has as its system MDA-MB-468 cells. Nature of the data set: CyQuant viable cell number assay, MDA-MB-468. Format: cell-based, human. The settings on record: read-out: IC50 viable cell numbers, MDA-MB-468. The method, then:
as §4, §5, §6, §7

Data set [5] in a line: Solubility. Format: physicochemical. The method, then: Solubility, human (HLM) and mouse liver microsomal (MLM), and plasma stability studies were performed by Eurofins Cerep Panlabs and Eurofin Discovery Services (www.eurofins.com/PharmaDiscovery), while protein binding studies were performed by Sanford Burnham Prebys Chemical Biology & Drug Discovery Core using standard protocols.

Data set [6] concerns MCF-10A cells. Briefly: CyQuant viable cell number assay, MCF-10A. Type of data set: cell-based, human. Conditions: 72 h, read-out: IC50 viable cell numbers, MCF-10A. The method, then:
as §4, §5, §6, §7

For data set [7], the target named is Stat3 (Homo sapiens, UniProt P40763). Nature of the data set: EMSA of constitutive Stat3 DNA-binding activity in nuclear extracts of treated breast cancer cells. Type of data set: cell-based. The settings on record: MDA-MB-468 and MDA-MB-231, 0–5 μM, 1 or 2 h. Set-up: endogenous in cells. The method, then: These studies were carried out as previously described using the ^32P-labeled oligonucleotide probes, hSIE (high affinity sis-inducible element from the c-fos gene, m67 variant, 5^′-[…]) that binds Stat1 and Stat3 [11, 12] and the mammary gland factor element (MGFe) from the bovine β–casein gene promoter (sense strand, 5^′-[…]) that binds Stat5 and Stat1 [11, 12]. Details are presented in Supplementary Information, “Methods”.
Nuclear extracts and whole-cell lysates were prepared, and samples of equal total protein were subjected to Stat3 DNA-binding assay/EMSA analysis using the hSIE probe, or to SDS/PAGE and Western blotting analysis for pY705Stat3, Stat3, or GAPDH [11, 12]. […] Depending on the concentration (1, 3, or 5 μM), the inhibitory effects of the azetidine compounds were observed relatively early, at 30–60 min, on both Stat3 DNA-binding activity (Fig. 4C) and Tyr phosphorylation (Fig. 4D, pY705Stat3).

Data set [8] relates to HCC1937 cells. Briefly: CyQuant viable cell number assay, HCC1937. Type of data set: cell-based, human. Conditions: read-out: IC50 viable cell numbers, HCC1937. The method, then: as §4, §5, §6, §7
Data set [9] has as its system MDA-MB-231 cells. Briefly: CyQuant viable cell number assay, MDA-MB-231. Type of data set: cell-based, human. The settings on record: Homo sapiens, MDA-MB-231, read-out: IC50 viable cell numbers, MDA-MB-231; CyQuant, 72 h. The method, then:
as §4, §5, §6, §7

Where [10] appears, read: first Stat1:Stat1 value listed (hSIE probe).
The mark [11] stands for this setting: second Stat1:Stat1 value listed (MGFe probe).
Where [12] appears, read: aqueous buffer, PBS pH 7.4, read-out: Solubility PBS pH 7.4.

In brackets after ≈: the same amount, converted by molar mass. Several values for one entry are separate records, joined by “and”; a condition that tells them apart may be missing. Equal entries are not always repeated. Where two headings read alike, the source gives them in different places.

Stat3, sequence (P40763 whole entry): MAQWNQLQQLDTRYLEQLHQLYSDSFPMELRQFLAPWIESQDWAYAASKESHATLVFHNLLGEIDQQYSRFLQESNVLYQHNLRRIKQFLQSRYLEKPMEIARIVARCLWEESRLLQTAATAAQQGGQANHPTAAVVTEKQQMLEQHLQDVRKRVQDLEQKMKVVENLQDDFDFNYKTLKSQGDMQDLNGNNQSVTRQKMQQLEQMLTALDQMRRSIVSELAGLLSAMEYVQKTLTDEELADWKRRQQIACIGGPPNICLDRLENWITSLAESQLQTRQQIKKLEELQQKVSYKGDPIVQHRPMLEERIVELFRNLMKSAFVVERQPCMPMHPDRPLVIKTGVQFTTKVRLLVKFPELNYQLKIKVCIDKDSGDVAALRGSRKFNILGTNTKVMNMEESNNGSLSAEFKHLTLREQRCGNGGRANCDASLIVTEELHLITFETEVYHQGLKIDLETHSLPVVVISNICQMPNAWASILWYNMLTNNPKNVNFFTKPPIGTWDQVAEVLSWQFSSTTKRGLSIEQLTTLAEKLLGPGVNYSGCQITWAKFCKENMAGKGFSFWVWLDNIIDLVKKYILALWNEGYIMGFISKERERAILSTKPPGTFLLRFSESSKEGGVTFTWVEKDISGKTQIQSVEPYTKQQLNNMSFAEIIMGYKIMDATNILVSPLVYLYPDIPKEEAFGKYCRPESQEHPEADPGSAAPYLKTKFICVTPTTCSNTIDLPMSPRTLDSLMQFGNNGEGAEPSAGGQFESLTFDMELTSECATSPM

Regarding `O=C([C@H]1CCN1S(=O)(=O)c1c(F)c(F)c(F)c(F)c1F)N(Cc1ccc(C2CCCCC2)cn1)c1ccc2c(=O)[nH]cnc2c1` [Compound H172], the IC50 in data set [1] was 20 µM; in data set [2] (setting [10]), more than 20 µM; in [2] (setting [11]), more than 20 µM; in [3], 4.9 to 9.2 µM; in [4] (Homo sapiens, MDA-MB-468, 72 h) it was 1500 nM; in [6], 4 µM. The concentration for half-maximal inhibition (IC50) was 3.8 to 4 µM in data set [6] (Homo sapiens, MCF-10A); 4.8 µM in [8] (72 h); 3.6 to 4.3 µM in data set [8] (Homo sapiens, HCC1937, 72 h); 3300 nM in [9]. In data set [5] (setting [12]), the solubility worked out at 6.3 µg/mL (≈ 9.73 µM). Moreover, the “Solubility SGF” value in [5] (simulated gastric fluid) is 104 µg/mL (≈ 161 µM). The “Solubility SIF” value in data set [5] (simulated intestinal fluid) is 123 µg/mL (≈ 190 µM). Moreover, the “Effect on constitutive Stat3 DNA-binding activity in cells” value in data set [7] is given as “dose-dependent inhibition”.
Regarding `O=C([C@H]1CCN1S(=O)(=O)c1c(F)c(F)c(F)c(F)c1F)N(Cc1ccc(C2CCCCC2)cn1)c1ccc2c(=O)[nH]ncc2c1` [Compound H182], the IC50 in data set [1] is 19.1 µM; in data set [2] (setting [10]), 16.8 µM; in [2] (setting [11]), 17.8 µM; in data set [3], 4.9 to 9.2 µM; in data set [4] (72 h), 1100 nM; in data set [4] (Homo sapiens, MDA-MB-468, 72 h), 1000 nM. Besides, the IC50 in data set [6] was 3.8 µM; in [6] (Homo sapiens, MCF-10A) it was 3.8 to 4 µM; in [8] (72 h) it was 3 µM; in data set [8] (Homo sapiens, HCC1937, 72 h), 3.6 to 4.3 µM; in data set [9] it was 1000 nM. In addition, the solubility was 3 µg/mL (≈ 4.63 µM) in data set [5] (setting [12]); 130 µg/mL and 132 µg/mL in [5] (simulated gastric fluid, read-out: Solubility SGF); 128 µg/mL (≈ 198 µM) in [5] (simulated intestinal fluid, fassgf or other biorelevant, read-out: Solubility SIF). In addition, the “Effect on constitutive Stat3 DNA-binding activity in cells” value in data set [7] is given as “dose-dependent inhibition”.

What is called IC50 is the concentration at which inhibition is half-maximal. What is called solubility is how much of the substance goes into solution per volume.
